Assays:
[1] = Refractive index (Kruess AR 4 D Abbe refractometer); assay type: physicochemical; conditions: 20.0° C., wavelength 589 nm
Experimental: The refractive index of the halogenated epoxy functional ether derivative was measured with a Kruess AR 4 D device (refractometer according to Abbe's measure principle). The refractive index was measured at 20.0° C. and at a wavelength of 589 nm.

[2] = system: Salmonella Strains TA98 and TA100; assay: AMES mutagenicity testing protocol (OECD Guideline 471, ISO 10993-3); assay type: cell-based; set-up: key: tested to be non mutagenic
Excerpt: The mutagenicity of the halogenated epoxy functional ether derivative according to the AMES mutagenicity testing protocol has been tested according to OECD Guideline 471 and ISO 10993-3 (2003).

| Compound | Refractive Index [1] | Mutagenic [yes/no] [2] |
| --- | --- | --- |
| CC(C)(c1cc(Br)c(OCCC2CO2)c(Br)c1)c1cc(Br)c(OCCC2CO2)c(Br)c1 (stereo not shown) [Example 4, 2,2-Bis[3,5-dibromo-4-(3,4-epoxy-butyloxy)-phenyl]-propane] | 1.610 | n^1) |
| C[Si]1(CCC2CCC3OC3C2)O[Si](C)(CCC2CCC3OC3C2)O[Si](C)(CCC2CCC3OC3C2)O[Si](C)(CCC2CCC3OC3C2)O1 (stereo not shown) [Reference Compound 1, 1,3,5,7-Tetrakis[2-(3,4-epoxycyclohexyl)-ethyl]-1,3,5,7-tetramethyl-cyclotetrasiloxane, reference compound] | 1.496 | – |
| c1cc(OCC2CO2)ccc1Cc1ccc(OCC2CO2)cc1 (stereo not shown) [Reference Compound 3, Bis[4-(2,3-epoxy-propyloxy)-phenyl]-methane, reference compound] | 1.579 | – |
| CC(C)(c1cc(Cl)c(OCCCC2CO2)c(Cl)c1)c1cc(Cl)c(OCCCC2CO2)c(Cl)c1 (stereo not shown) [Example 3, 2,2-Bis[3,5-dichloro-4-(4,5-epoxy-pentyloxy)-phenyl]-propane] | 1.571 | n^1) |
| Clc1cccc(CC2CO2)c1OCCC1CO1 (stereo not shown) [Example 6, 4-[2-(2,3-epoxy-propyl)-6-chloro-phenoxy]-1,2-epoxybutane] | 1.535 | – |
| C[Si](CCC1CCC2OC2C1)(CCC1CCC2OC2C1)c1ccccc1 (stereo not shown) [Reference Compound 2, Bis[2-(3,4-epoxycyclohexyl)-ethyl]-methyl-phenyl-silane, reference compound] | 1.536 | – |
| CC(C)(c1ccc(OCCCC2CO2)cc1)c1ccc(OCCCC2CO2)cc1 (stereo not shown) [Reference Compound 5, 2,2-Bis[4-(4,5-epoxy-pentyloxy)-phenyl]-propane, reference compound] | 1.551 | – |
| CC(C)(c1cc(Br)c(OCCCC2CO2)c(Br)c1)c1cc(Br)c(OCCCC2CO2)c(Br)c1 (stereo not shown) [Example 5, 2,2-Bis[3,5-dibromo-4-(4,5-epoxy-pentyloxy)-phenyl]-propane] | 1.604 | n^1) |
| 1,5-Bis[2-(2,3-epoxy-propyl)-6-chloro-phenyl]-pentane [Example 1] | 1.552 | n^1) |
| CC(C)(c1ccc(OCCC2CO2)cc1)c1ccc(OCCC2CO2)cc1 (stereo not shown) [Reference Compound 4, 2,2-Bis[4-(3,4-epoxy-butyloxy)-phenyl]-propane, reference compound] | 1.563 | – |
| 1,5-Bis[2-(2,3-epoxy-propyl)-4,6-dichloro-phenyl]-pentane [Example 2] | 1.561 | n^1) |

— patent US7939580B2, “Dental composition containing epoxy functional polymerizable compounds” (3M Innovative Properties Company, priority 2004, dated 2011)
